Reference: ChEMBL document CHEMBL1134914, “Acyl dipeptides as reversible caspase inhibitors. Part 1: initial lead optimization” (Bioorg Med Chem Lett, 2002)

How the values were obtained:
Caspase-7 = target: T1, Caspase-7 (Homo sapiens, UniProt P55210); assay: Inhibitory concentration against caspase-7
T1 sequence (P55210 whole entry): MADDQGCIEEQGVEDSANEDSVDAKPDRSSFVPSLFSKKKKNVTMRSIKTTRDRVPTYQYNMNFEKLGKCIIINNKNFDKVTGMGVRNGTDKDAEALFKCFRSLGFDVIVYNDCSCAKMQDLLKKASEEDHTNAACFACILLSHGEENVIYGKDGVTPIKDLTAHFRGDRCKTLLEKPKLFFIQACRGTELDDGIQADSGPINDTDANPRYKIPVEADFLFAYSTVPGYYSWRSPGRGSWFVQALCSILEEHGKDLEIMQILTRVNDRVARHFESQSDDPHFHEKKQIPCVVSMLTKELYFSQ

Caspase-1 (Mus musculus) = Caspase-1 (Mus musculus) (UniProt P29452)
Caspase-1 (Mus musculus), sequence (P29452 whole entry, looked up): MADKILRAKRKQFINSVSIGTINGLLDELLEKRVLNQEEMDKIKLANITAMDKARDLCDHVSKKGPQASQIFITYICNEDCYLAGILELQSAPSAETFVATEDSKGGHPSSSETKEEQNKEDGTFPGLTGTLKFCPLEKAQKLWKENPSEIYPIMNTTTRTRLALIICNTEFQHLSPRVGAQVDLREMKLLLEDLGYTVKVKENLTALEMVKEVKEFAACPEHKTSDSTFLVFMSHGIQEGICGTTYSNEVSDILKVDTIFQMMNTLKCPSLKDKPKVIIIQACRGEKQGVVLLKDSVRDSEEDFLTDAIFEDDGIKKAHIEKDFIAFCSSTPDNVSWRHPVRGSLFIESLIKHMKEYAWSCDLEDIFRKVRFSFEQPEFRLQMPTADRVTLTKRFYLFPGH

Caspase-6 = target: T2, Caspase-6 (Homo sapiens, UniProt P55212); assay: Inhibitory concentration required against caspase-6
T2 sequence (P55212 whole entry): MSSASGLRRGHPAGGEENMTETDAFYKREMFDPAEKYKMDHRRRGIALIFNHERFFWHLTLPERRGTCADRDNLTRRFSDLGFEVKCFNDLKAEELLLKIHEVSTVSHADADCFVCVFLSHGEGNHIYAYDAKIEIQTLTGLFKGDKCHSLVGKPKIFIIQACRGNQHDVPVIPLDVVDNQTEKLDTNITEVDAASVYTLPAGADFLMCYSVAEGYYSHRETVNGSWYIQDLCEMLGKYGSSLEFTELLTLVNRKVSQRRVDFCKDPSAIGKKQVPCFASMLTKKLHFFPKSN

Caspase-8 = Caspase-8 (Homo sapiens, UniProt Q14790); assay: Inhibitory concentration against caspase-8
Caspase-8, sequence (Q14790 217-374 limits assumed): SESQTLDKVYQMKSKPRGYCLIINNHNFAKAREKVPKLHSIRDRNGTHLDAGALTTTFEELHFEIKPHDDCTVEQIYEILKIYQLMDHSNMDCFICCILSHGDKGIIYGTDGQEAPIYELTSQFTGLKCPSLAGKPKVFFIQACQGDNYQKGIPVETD
Caspase-8, sequence (Q14790 385-479 limits assumed): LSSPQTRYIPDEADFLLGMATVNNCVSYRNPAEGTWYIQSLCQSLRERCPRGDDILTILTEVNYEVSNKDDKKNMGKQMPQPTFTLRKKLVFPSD

Caspase-3 = target: T3, Caspase-3 (Homo sapiens, UniProt P42574); assay: Inhibitory concentration against caspase-3
T3 sequence (P42574 whole entry): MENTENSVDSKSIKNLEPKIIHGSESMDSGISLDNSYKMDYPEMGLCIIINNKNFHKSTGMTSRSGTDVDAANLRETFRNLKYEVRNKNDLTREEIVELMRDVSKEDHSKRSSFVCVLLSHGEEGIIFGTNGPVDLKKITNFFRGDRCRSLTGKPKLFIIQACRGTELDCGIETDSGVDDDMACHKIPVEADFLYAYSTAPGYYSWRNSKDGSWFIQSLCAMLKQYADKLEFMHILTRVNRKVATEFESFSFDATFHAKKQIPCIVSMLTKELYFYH

IC50 (Caspase-7) | IC50 (Caspase-1 (Mus musculus)) | IC50 (Caspase-6) | IC50 (Caspase-8) | IC50 (Caspase-3) | Compound
34.7 µM | 44.2 µM | > 50 µM | > 50 µM | 1.57 µM | CC(C)C[C@H](NC(=O)COc1nccc2ccccc12)C(=O)N[C@H]1CC(=O)OC1O (stereo partly drawn)
18.2 µM | 1.8 µM | 14.5 µM | > 50 µM | 2.76 µM | CC(C)C[C@H](NC(=O)CCCc1ccc2ccccc2c1)C(=O)N[C@H]1CC(=O)OC1O (stereo partly drawn)
> 10 µM | – | > 10 µM | > 10 µM | > 10 µM | CC(C)C[C@H](NC(=O)c1cccc2ccccc12)C(=O)N[C@H]1CC(=O)OC1O (stereo partly drawn)
9.65 µM | 1.32 µM | 5.9 µM | 15.2 µM | 0.91 µM | CC(C)C[C@H](NC(=O)CCOc1ccc2ccccc2c1)C(=O)N[C@H]1CC(=O)OC1O (stereo partly drawn)
> 10 µM | 3.14 µM | 11.1 µM | 12.7 µM | 0.849 µM | CC(C)C[C@H](NC(=O)Cc1ccc2ccccc2c1)C(=O)N[C@H]1CC(=O)OC1O (stereo partly drawn)
> 10 µM | 1.74 µM | > 10 µM | > 10 µM | 6.74 µM | CC(C)C[C@H](NC(=O)c1ccc2ccccc2c1)C(=O)N[C@H]1CC(=O)OC1O (stereo partly drawn)
8.77 µM | 1.86 µM | 4.18 µM | 12.2 µM | 1.59 µM | CC(C)C[C@H](NC(=O)CCc1cccc2ccccc12)C(=O)N[C@H]1CC(=O)OC1O (stereo partly drawn)
5.89 µM | 0.611 µM | 1.62 µM | 15 µM | 0.837 µM | CC(C)C[C@H](NC(=O)CCSc1ccc2ccccc2c1)C(=O)N[C@H]1CC(=O)OC1O (stereo partly drawn)
1.37 µM | – | 0.305 µM | 9.81 µM | 0.059 µM | CC(C)C[C@H](NC(=O)CCOc1cccc2ccccc12)C(=O)N[C@H]1CC(=O)OC1O (stereo partly drawn)
1.32 µM | – | 1.28 µM | 2.43 µM | 0.376 µM | CC(C)C[C@H](NC(=O)C(C)Oc1cccc2ccccc12)C(=O)N[C@H]1CC(=O)OC1O (stereo partly drawn)
3.6 µM | 0.563 µM | 2.72 µM | 16.3 µM | 0.412 µM | CC(C)C[C@H](NC(=O)CCSc1cccc2ccccc12)C(=O)N[C@H]1CC(=O)OC1O (stereo partly drawn)
7.43 µM | 0.543 µM | 10.3 µM | 5.23 µM | 1.42 µM | CC(C)C[C@H](NC(=O)CC(=O)c1ccc2ccccc2c1)C(=O)N[C@H]1CC(=O)OC1O (stereo partly drawn)
1.74 µM | 2.75 µM | 1.43 µM | 7.42 µM | 0.195 µM | CC(C)C[C@H](NC(=O)CSc1cccc2ccccc12)C(=O)N[C@H]1CC(=O)OC1O (stereo partly drawn)
1.81 µM | – | 0.94 µM | 0.77 µM | 0.135 µM | CC(C)C[C@H](NC(=O)COc1cccc2ccccc12)C(=O)N[C@H]1CC(=O)OC1O (stereo partly drawn)
7.27 µM | 3.24 µM | – | – | 0.853 µM | CC(C)C[C@H](NC(=O)Cc1cccc2ccccc12)C(=O)N[C@H]1CC(=O)OC1O (stereo partly drawn)
11.3 µM | 0.408 µM | 11.8 µM | 11.2 µM | 0.967 µM | CC(C)C[C@H](NC(=O)CC(=O)c1cccc2ccccc12)C(=O)N[C@H]1CC(=O)OC1O (stereo partly drawn)
2.52 µM | 0.792 µM | 3.16 µM | 11 µM | 0.269 µM | CC(C)C[C@H](NC(=O)CSc1ccc2ccccc2c1)C(=O)N[C@H]1CC(=O)OC1O (stereo partly drawn)
3.38 µM | 0.429 µM | 12 µM | 1.69 µM | 0.231 µM | CC(C)C[C@H](NC(=O)COc1ccc(Cl)c2ccccc12)C(=O)N[C@H]1CC(=O)OC1O (stereo partly drawn)

More lines, now with the values behind:

Compound | IC50 (Caspase-7) | IC50 (Caspase-1 (Mus musculus)) | IC50 (Caspase-6) | IC50 (Caspase-8) | IC50 (Caspase-3)
COc1ccc(OCC(=O)N[C@@H](CC(C)C)C(=O)N[C@H]2CC(=O)OC2O)c2ccccc12 (stereo partly drawn) | 4.08 µM | 0.831 µM | 22.6 µM | 1.45 µM | 0.263 µM
CC(C)C[C@H](NC(=O)COc1ccccc1)C(=O)N[C@H]1CC(=O)OC1O (stereo partly drawn) | > 10 µM | > 10 µM | > 50 µM | > 10 µM | 3.4 µM
CC(C)C[C@H](NC(=O)COc1ccc(OCc2ccccc2)cc1)C(=O)N[C@H]1CC(=O)OC1O (stereo partly drawn) | 7.25 µM | 2.51 µM | 33.4 µM | 8.6 µM | 0.57 µM
CC(C)C[C@H](NC(=O)COc1ccnc2ccccc12)C(=O)N[C@H]1CC(=O)OC1O (stereo partly drawn) | 4.57 µM | 35.3 µM | > 50 µM | > 50 µM | 0.232 µM
CC(C)[C@@H](NC(=O)OCc1ccccc1)C(=O)C[C@H]1CC(=O)OC1O (stereo partly drawn) | 6.81 µM | 5.85 µM | 10 µM | 12 µM | 1.75 µM
CC(C)C[C@H](NC(=O)COc1ccccc1OCc1ccccc1)C(=O)N[C@H]1CC(=O)OC1O (stereo partly drawn) | 2.2 µM | 2.4 µM | 9.75 µM | 4.34 µM | 0.222 µM
CC(C)C[C@H](NC(=O)COc1cccc2cccnc12)C(=O)N[C@H]1CC(=O)OC1O (stereo partly drawn) | 1.51 µM | 13.7 µM | 12.5 µM | 2.24 µM | 0.147 µM
CC(C)C[C@H](NC(=O)/C=C/c1ccccc1)C(=O)N[C@H]1CC(=O)OC1O (stereo partly drawn) | 9.72 µM | 0.65 µM | 5.05 µM | 13.4 µM | 1.39 µM
CC(C)C[C@H](NC(=O)COc1cccc2cnccc12)C(=O)N[C@H]1CC(=O)OC1O (stereo partly drawn) | 3.48 µM | 5.14 µM | 42.7 µM | 3.64 µM | 0.407 µM
CC(C)C[C@H](NC(=O)CCOc1ccccc1)C(=O)N[C@H]1CC(=O)OC1O (stereo partly drawn) | 6.04 µM | 9.42 µM | > 50 µM | > 10 µM | 0.419 µM
CC(C)C[C@H](NC(=O)COc1ccccc1Cc1ccccc1)C(=O)N[C@H]1CC(=O)OC1O (stereo partly drawn) | 3.36 µM | 0.521 µM | 10.1 µM | 6.05 µM | 0.49 µM
CC(C)C[C@H](NC(=O)COc1ccc(Oc2ccccc2)cc1)C(=O)N[C@H]1CC(=O)OC1O (stereo partly drawn) | 6.82 µM | 2.21 µM | 21.2 µM | 9.28 µM | 0.545 µM
CC(C)C[C@H](Nc1ccccc1)C(=O)N[C@H]1CC(=O)OC1O (stereo partly drawn) | > 10 µM | > 10 µM | > 50 µM | > 10 µM | 3.4 µM
CC(C)C[C@H](NC(=O)C(C)Oc1cccc2cc(Br)ccc12)C(=O)N[C@H]1CC(=O)OC1O (stereo partly drawn) | 32.4 µM | – | 13.8 µM | 29.1 µM | 4.81 µM
CC(C)C[C@H](NC(=O)COc1cccc2c1CCCC2)C(=O)N[C@H]1CC(=O)OC1O (stereo partly drawn) | 2.74 µM | 1.81 µM | 11.8 µM | 1.75 µM | 0.324 µM
CC(C)C[C@H](NC(=O)COc1cccc2ncccc12)C(=O)N[C@H]1CC(=O)OC1O (stereo partly drawn) | 3.85 µM | 5.25 µM | > 50 µM | 4.02 µM | 0.412 µM
Cc1ccc(OCC(=O)N[C@@H](CC(C)C)C(=O)N[C@H]2CC(=O)OC2O)c(C23CC4CC(CC(C4)C2)C3)c1 (stereo partly drawn) | 2.79 µM | 1.43 µM | 5.86 µM | 3.87 µM | 0.474 µM
CC(C)C[C@H](NC(=O)COc1ccccc1C1CCCC1)C(=O)N[C@H]1CC(=O)OC1O (stereo partly drawn) | 1.49 µM | 0.538 µM | 3.37 µM | 1.86 µM | 0.197 µM
CC(C)C[C@H](NC(=O)COc1ccc2c(c1)CCCC2)C(=O)N[C@H]1CC(=O)OC1O (stereo partly drawn) | 2.31 µM | 2.57 µM | 28.6 µM | 4.95 µM | 0.162 µM
CC(C)C[C@H](NC(=O)COc1ccc(Cc2ccccc2)cc1)C(=O)N[C@H]1CC(=O)OC1O (stereo partly drawn) | 4.41 µM | 1.8 µM | 18.9 µM | 4.72 µM | 0.346 µM
CC(C)C[C@H](NC(=O)COc1ccc(C23CC4CC(CC(C4)C2)C3)cc1)C(=O)N[C@H]1CC(=O)OC1O (stereo partly drawn) | 8.24 µM | 1.83 µM | 32.5 µM | 4.35 µM | 0.528 µM
CC(C)C[C@H](NC(=O)COc1cccc(-c2ccccc2)c1)C(=O)N[C@H]1CC(=O)OC1O (stereo partly drawn) | 3.75 µM | 1.1 µM | 14.5 µM | 3.86 µM | 0.311 µM
CC(C)C[C@H](NC(=O)COc1ccccc1-c1ccccc1)C(=O)N[C@H]1CC(=O)OC1O (stereo partly drawn) | 2.02 µM | 0.636 µM | 0.717 µM | 1.71 µM | 0.095 µM
CC(C)C[C@H](NC(=O)COc1ccc(C2CCCC2)cc1)C(=O)N[C@H]1CC(=O)OC1O (stereo partly drawn) | 5.23 µM | 2.2 µM | 51.2 µM | 5.9 µM | 0.319 µM
